According to US10358434B2, “2-(3-pyridinyl)-1H-benzimidazole derivative compound and medicament containing same” (NIHON MEDI-PHYSICS CO., LTD., priority 2014, dated 2019):
One block for each molecule: values may come before it.

Legend:
[1] = system: human adrenal gland section expressing aldosterone-producing adenoma; assay: In vitro autoradiography using human adrenal adenoma; type: binding
Summary of the method: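 Autoradiography readout: PSL in equal-sized ROIs over adenoma (B2) and normal adrenal cortex (B1), expressed as B2/B1 and decay-corrected using half-life, applied activity and plate contact time. Tissue was surgically excised human adrenal, frozen and cut at 7 μm, incubated 10 min with 5-33 kBq/mL tracer in BSA-containing PBS, then imaged after 16-20 h exposure.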

[2] = In vivo kinetics experiment (radioactivity distribution); set-up: species or system Wistar male rat
Summary of the method: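 Tissue radioactivity (% ID/g) and adrenal-to-blood, liver, kidney, small intestine, muscle and fat ratios determined at 10, 30 and 60 min post-dose. Tracers (approximately 1 to 3.7 MBq, saline with 1 w/v % ascorbic acid) injected i.v. into caudal vein of anesthetized 9-week male Wistar rats; organs excised, weighed, counted.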

[3] = Plasma stability evaluation (TLC analysis); type: in vitro ADME; details: 37° C., 60 minutes; for Radiochemical purity after incubation in human plasma: TLC analysis
Summary of the method: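 TLC analysis, using each compound's synthesis conditions, judged stability after methanol was added and samples were centrifuged to remove protein. Beforehand, each tracer had spent 60 minutes at 37° C in pooled heparinized normal human plasma.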

[4] = rat, caudal vein, 10 min after administration
[5] = rat, caudal vein, 30 min after administration
[6] = rat, caudal vein, 60 min after administration
[7] = 10 min after administration, rat i.v., mean ± SD
[8] = 30 min after administration, rat i.v., mean ± SD
[9] = 60 min after administration, rat i.v., mean ± SD

Adrenal gland/blood ratio of radioactivity accumulation [2, 4]: 137.96 ± 52.72
Adrenal gland/fat ratio of radioactivity accumulation [2, 4]: 141.33 ± 57.27
Adrenal gland/kidney ratio of radioactivity accumulation [2, 4]: 6.14 ± 2.01
Adrenal gland/liver ratio of radioactivity accumulation [2, 4]: 1.93 ± 0.69
Adrenal gland/muscle ratio of radioactivity accumulation [2, 4]: 63.25 ± 34.56
Adrenal gland/small intestine ratio of radioactivity accumulation [2, 4]: 9.89 ± 2.73
Radioactivity distribution Adrenal gland [2, 4]: 10.19 ± 3.35 % ID/g
Radioactivity distribution Bladder (including urine) [2, 4]: 0.22 ± 0.08 % ID/g
Radioactivity distribution Blood [2, 4]: 0.08 ± 0.01 % ID/g
Radioactivity distribution Fat [2, 4]: 0.08 ± 0.02 % ID/g
Radioactivity distribution Femur [2, 4]: 0.63 ± 0.08 % ID/g
Radioactivity distribution Heart [2, 4]: 0.32 ± 0.08 % ID/g
Radioactivity distribution Kidney [2, 4]: 1.70 ± 0.40 % ID/g
Radioactivity distribution Large intestine [2, 4]: 0.15 ± 0.02 % ID/g
Radioactivity distribution Liver [2, 4]: 5.39 ± 0.99 % ID/g
Radioactivity distribution Lung [2, 4]: 0.63 ± 0.08 % ID/g
Radioactivity distribution Muscle (lower limbs) [2, 4]: 0.23 ± 0.24 % ID/g
Radioactivity distribution Remaining whole body [2, 4]: 0.22 ± 0.03 % ID/g
Radioactivity distribution Small intestine [2, 4]: 1.03 ± 0.14 % ID/g
Radioactivity distribution Spleen [2, 4]: 3.85 ± 0.65 % ID/g
Radioactivity distribution Stomach [2, 4]: 0.56 ± 0.17 % ID/g
Radioactivity distribution Testis [2, 4]: 0.05 ± 0.01 % ID/g
Radioactivity distribution Whole brain [2, 4]: 0.01 ± 0.00 % ID/g
Adrenal gland/blood ratio of radioactivity accumulation [2, 5]: 249.08 ± 51.81
Adrenal gland/fat ratio of radioactivity accumulation [2, 5]: 352.33 ± 208.06
Adrenal gland/kidney ratio of radioactivity accumulation [2, 5]: 18.18 ± 4.58
Adrenal gland/liver ratio of radioactivity accumulation [2, 5]: 3.58 ± 0.82
Adrenal gland/muscle ratio of radioactivity accumulation [2, 5]: 179.35 ± 63.77
Adrenal gland/small intestine ratio of radioactivity accumulation [2, 5]: 11.12 ± 2.64
Radioactivity distribution Adrenal gland [2, 5]: 19.61 ± 4.29 % ID/g
Radioactivity distribution Bladder (including urine) [2, 5]: 1.17 ± 0.77 % ID/g
Radioactivity distribution Blood [2, 5]: 0.08 ± 0.01 % ID/g
Radioactivity distribution Fat [2, 5]: 0.07 ± 0.02 % ID/g
Radioactivity distribution Femur [2, 5]: 0.71 ± 0.18 % ID/g
Radioactivity distribution Heart [2, 5]: 0.27 ± 0.06 % ID/g
Radioactivity distribution Kidney [2, 5]: 1.10 ± 0.16 % ID/g
Radioactivity distribution Large intestine [2, 5]: 0.20 ± 0.02 % ID/g
Radioactivity distribution Liver [2, 5]: 5.55 ± 0.80 % ID/g
Radioactivity distribution Lung [2, 5]: 0.43 ± 0.07 % ID/g
Radioactivity distribution Muscle (lower limbs) [2, 5]: 0.12 ± 0.03 % ID/g
Radioactivity distribution Remaining whole body [2, 5]: 0.18 ± 0.03 % ID/g
Radioactivity distribution Small intestine [2, 5]: 1.78 ± 0.21 % ID/g
Radioactivity distribution Spleen [2, 5]: 4.57 ± 1.32 % ID/g
Radioactivity distribution Stomach [2, 5]: 0.73 ± 0.11 % ID/g
Radioactivity distribution Testis [2, 5]: 0.06 ± 0.01 % ID/g
Radioactivity distribution Whole brain [2, 5]: 0.01 ± 0.00 % ID/g
Adrenal gland/blood ratio of radioactivity accumulation [2, 6]: 247.32 ± 64.42
Adrenal gland/fat ratio of radioactivity accumulation [2, 6]: 397.01 ± 160.35
Adrenal gland/kidney ratio of radioactivity accumulation [2, 6]: 18.96 ± 4.83
Adrenal gland/liver ratio of radioactivity accumulation [2, 6]: 5.20 ± 1.19
Adrenal gland/muscle ratio of radioactivity accumulation [2, 6]: 236.89 ± 62.76
Adrenal gland/small intestine ratio of radioactivity accumulation [2, 6]: 7.66 ± 2.34
Radioactivity distribution Adrenal gland [2, 6]: 21.34 ± 5.24 % ID/g
Radioactivity distribution Bladder (including urine) [2, 6]: 2.41 ± 0.97 % ID/g
Radioactivity distribution Blood [2, 6]: 0.09 ± 0.01 % ID/g
Radioactivity distribution Fat [2, 6]: 0.06 ± 0.03 % ID/g
Radioactivity distribution Femur [2, 6]: 0.77 ± 0.13 % ID/g
Radioactivity distribution Heart [2, 6]: 0.26 ± 0.03 % ID/g
Radioactivity distribution Kidney [2, 6]: 1.13 ± 0.17 % ID/g
Radioactivity distribution Large intestine [2, 6]: 0.38 ± 0.22 % ID/g
Radioactivity distribution Liver [2, 6]: 4.11 ± 0.66 % ID/g
Radioactivity distribution Lung [2, 6]: 0.45 ± 0.05 % ID/g
Radioactivity distribution Muscle (lower limbs) [2, 6]: 0.09 ± 0.01 % ID/g
Radioactivity distribution Remaining whole body [2, 6]: 0.18 ± 0.02 % ID/g
Radioactivity distribution Small intestine [2, 6]: 2.85 ± 0.37 % ID/g
Radioactivity distribution Spleen [2, 6]: 4.40 ± 1.15 % ID/g
Radioactivity distribution Stomach [2, 6]: 1.02 ± 0.19 % ID/g
Radioactivity distribution Testis [2, 6]: 0.08 ± 0.01 % ID/g
Radioactivity distribution Whole brain [2, 6]: 0.02 ± 0.00 % ID/g
Radiochemical purity after incubation in human plasma [3]: 97%
SMILES: Fc1cc2nc(-c3cncc(Cn4ccnc4)c3)n(CC[18F])c2cc1Cl [[^18F] 100, 6-Chloro-5-fluoro-1-(2-[^18F]fluoroethyl)-2-[5-(imidazol-1-ylmethyl)pyridin-3-yl]benzimidazole]
accumulation of radioactivity in adrenal gland section (autoradiogram) ([1]; FIGS. 18 to 31): accumulation of radioactivity was selectively observed in a region in which aldosterone-producing adenoma had been pathologically observed
B2/B1 accumulation ratio ([1]; section of FIG. 17(a)): 5.08
B2 (PSL value, aldosterone-producing adenoma) ([1]; section of FIG. 17(a), site 71a): 16480
B1 (PSL value, normal adrenal cortex) ([1]; section of FIG. 17(a), site 72a): 3241
accumulation of radioactivity in adrenal gland vs blood and peripheral tissues ([2]; rat, Tables 9 to 22): high accumulation of radioactivity in adrenal gland was observed, in comparison to in blood and peripheral tissues
stability in human plasma [3]: hardly metabolized and decomposed in the plasma

SMILES: CCn1c(-c2cncc(Cn3ccnc3)c2)nc2ccc([123I])cc21 [[^123I] 608, 2-[5-{(1H-imidazol-1-yl)methyl}pyridin-3-yl]-1-ethyl-6-[^123I]iodo-1H-benzo[d]imidazole]
B2/B1 accumulation ratio ([1]; section of FIG. 17(b)): 1.08
B2 (PSL value, aldosterone-producing adenoma) ([1]; section of FIG. 17(b), site 71b): 3580
B1 (PSL value, normal adrenal cortex) ([1]; section of FIG. 17(b), site 72b): 3303
Adrenal gland/blood ratio of radioactivity accumulation [2, 7]: 75.29 ± 24.87
Adrenal gland/fat ratio of radioactivity accumulation [2, 7]: 90.02 ± 14.66
Adrenal gland/kidney ratio of radioactivity accumulation [2, 7]: 4.95 ± 1.61
Adrenal gland/liver ratio of radioactivity accumulation [2, 7]: 2.86 ± 0.42
Adrenal gland/muscle ratio of radioactivity accumulation [2, 7]: 57.35 ± 15.85
Adrenal gland/small intestine ratio of radioactivity accumulation [2, 7]: 5.04 ± 0.35
Radioactivity distribution Adrenal gland [2, 7]: 8.76 ± 2.34 % ID/g
Radioactivity distribution Bladder (including urine) [2, 7]: 0.82 ± 0.43 % ID/g
Radioactivity distribution Blood [2, 7]: 0.12 ± 0.01 % ID/g
Radioactivity distribution Fat [2, 7]: 0.10 ± 0.01 % ID/g
Radioactivity distribution Femur [2, 7]: 0.82 ± 0.05 % ID/g
Radioactivity distribution Heart [2, 7]: 0.74 ± 0.09 % ID/g
Radioactivity distribution Kidney [2, 7]: 1.79 ± 0.11 % ID/g
Radioactivity distribution Large intestine [2, 7]: 0.12 ± 0.01 % ID/g
Radioactivity distribution Liver [2, 7]: 3.03 ± 0.36 % ID/g
Radioactivity distribution Lung [2, 7]: 1.11 ± 0.11 % ID/g
Radioactivity distribution Muscle (lower limbs) [2, 7]: 0.15 ± 0.00 % ID/g
Radioactivity distribution Remaining whole body [2, 7]: 0.29 ± 0.05 % ID/g
Radioactivity distribution Small intestine [2, 7]: 1.74 ± 0.42 % ID/g
Radioactivity distribution Spleen [2, 7]: 3.79 ± 1.44 % ID/g
Radioactivity distribution Stomach [2, 7]: 0.53 ± 0.16 % ID/g
Radioactivity distribution Testis [2, 7]: 0.07 ± 0.01 % ID/g
Radioactivity distribution Whole brain [2, 7]: 0.03 ± 0.01 % ID/g
Adrenal gland/blood ratio of radioactivity accumulation [2, 8]: 172.72 ± 25.00
Adrenal gland/fat ratio of radioactivity accumulation [2, 8]: 103.83 ± 16.66
Adrenal gland/kidney ratio of radioactivity accumulation [2, 8]: 5.90 ± 0.47
Adrenal gland/liver ratio of radioactivity accumulation [2, 8]: 10.03 ± 1.46
Adrenal gland/muscle ratio of radioactivity accumulation [2, 8]: 65.62 ± 16.66
Adrenal gland/small intestine ratio of radioactivity accumulation [2, 8]: 3.39 ± 0.42
Radioactivity distribution Adrenal gland [2, 8]: 10.75 ± 1.11 % ID/g
Radioactivity distribution Bladder (including urine) [2, 8]: 2.70 ± 1.51 % ID/g
Radioactivity distribution Blood [2, 8]: 0.06 ± 0.01 % ID/g
Radioactivity distribution Fat [2, 8]: 0.10 ± 0.01 % ID/g
Radioactivity distribution Femur [2, 8]: 1.17 ± 0.02 % ID/g
Radioactivity distribution Heart [2, 8]: 0.76 ± 0.16 % ID/g
Radioactivity distribution Kidney [2, 8]: 1.82 ± 0.08 % ID/g
Radioactivity distribution Large intestine [2, 8]: 0.11 ± 0.00 % ID/g
Radioactivity distribution Liver [2, 8]: 1.08 ± 0.13 % ID/g
Radioactivity distribution Lung [2, 8]: 1.14 ± 0.08 % ID/g
Radioactivity distribution Muscle (lower limbs) [2, 8]: 0.17 ± 0.03 % ID/g
Radioactivity distribution Remaining whole body [2, 8]: 0.30 ± 0.00 % ID/g
Radioactivity distribution Small intestine [2, 8]: 3.18 ± 0.18 % ID/g
Radioactivity distribution Spleen [2, 8]: 4.81 ± 0.73 % ID/g
Radioactivity distribution Stomach [2, 8]: 1.34 ± 0.66 % ID/g
Radioactivity distribution Testis [2, 8]: 0.11 ± 0.00 % ID/g
Radioactivity distribution Whole brain [2, 8]: 0.02 ± 0.00 % ID/g
Adrenal gland/blood ratio of radioactivity accumulation [2, 9]: 345.58 ± 116.00
Adrenal gland/fat ratio of radioactivity accumulation [2, 9]: 158.96 ± 131.25
Adrenal gland/kidney ratio of radioactivity accumulation [2, 9]: 10.46 ± 6.81
Adrenal gland/liver ratio of radioactivity accumulation [2, 9]: 25.91 ± 10.25
Adrenal gland/muscle ratio of radioactivity accumulation [2, 9]: 113.23 ± 76.79
Adrenal gland/small intestine ratio of radioactivity accumulation [2, 9]: 3.39 ± 1.14
Radioactivity distribution Adrenal gland [2, 9]: 15.22 ± 7.58 % ID/g
Radioactivity distribution Bladder (including urine) [2, 9]: 2.67 ± 0.43 % ID/g
Radioactivity distribution Blood [2, 9]: 0.04 ± 0.01 % ID/g
Radioactivity distribution Fat [2, 9]: 0.11 ± 0.04 % ID/g
Radioactivity distribution Femur [2, 9]: 1.28 ± 0.07 % ID/g
Radioactivity distribution Heart [2, 9]: 0.72 ± 0.09 % ID/g
Radioactivity distribution Kidney [2, 9]: 1.55 ± 0.21 % ID/g
Radioactivity distribution Large intestine [2, 9]: 0.16 ± 0.07 % ID/g
Radioactivity distribution Liver [2, 9]: 0.57 ± 0.06 % ID/g
Radioactivity distribution Lung [2, 9]: 0.94 ± 0.08 % ID/g
Radioactivity distribution Muscle (lower limbs) [2, 9]: 0.15 ± 0.03 % ID/g
Radioactivity distribution Remaining whole body [2, 9]: 0.28 ± 0.01 % ID/g
Radioactivity distribution Small intestine [2, 9]: 4.35 ± 0.69 % ID/g
Radioactivity distribution Spleen [2, 9]: 4.13 ± 1.21 % ID/g
Radioactivity distribution Stomach [2, 9]: 1.15 ± 0.26 % ID/g
Radioactivity distribution Testis [2, 9]: 0.09 ± 0.01 % ID/g
Radioactivity distribution Whole brain [2, 9]: 0.02 ± 0.00 % ID/g
Radiochemical purity after incubation in human plasma [3]: 88%
